How the values were obtained:
[1] = target: T1, chimeric receptor having the extra-cellular domain of EGF-R and the intra-cellular domain of Her2 (Homo sapiens, UniProt P04626); assay: EGF-induced Her2-driven BrdU incorporation; type: cell-based; conditions: read-out: BrdU HER 2 driven IC50
T1 construct: fused on or other part: the same chimera
Method: The cellular/catalytic assays described herein are performed in an ELISA format. The general procedure is as follows: a compound is introduced to cells expressing the test kinase, either naturally or recombinantly, for a selected period of time after which, if the test kinase is a receptor, a ligand known to activate the receptor is added. The cells are lysed and the lysate is transferred to the wells of an ELISA plate previously coated with a specific antibody recognizing the substrate of the enzymatic phosphorylation reaction. Non-substrate components of the cell lysate are washed away and the amount of phosphorylation on the substrate is detected with an antibody specifically recognizing phosphotyrosine compared with control cells that were not contacted with a test compound. The cellular/biologic assays described herein measure the amount of DNA made in response to activation of a test kinase, which is a general measure of a proliferative response. The general procedure for this assay is as follows: a compound is introduced to cells expressing the test kinase, either naturally or recombinantly, for a selected period of time after which, if the test kinase is a receptor, a ligand known to activate the receptor is added. After incubation at least overnight, a DNA labeling reagent such as Bromodeoxyuridine (BrdU) or 3H-thymidine is added. The amount of labeled DNA is detected with either an anti-BrdU antibody or by measuring radioactivity and is compared to control cells not contacted with a test compound.
EGF-Induced Her2-Driven BrdU Incorporation
Protocol • (1) Cells-are seeded at 8000 cells/well in DMEM, 10% CS, 2mM Gln in a 96-well plate. Cells are incubated overnight at 37° C. in 5% CO2. • (2) After 24 hours, the cells are washed with PBS, and then are serum starved in serum free medium (0% CS DMEM with 0.1% BSA) for 24 hours. • (3) On day 3, ligand (EGF=2 nM, prepared in DMEM with 0.1% BSA) and test compounds are added to the cells simultaneously. The negative control wells receive serum free DMEM with 0.1% BSA only, the positive control cells receive the ligand (EGF) but no test compound. Test compounds are prepared in serum free DMEM with ligand in a 96 well plate, and serially diluted for 7 test concentrations. • (4) After 20 hours of ligand activation, diluted BrdU labeling reagent (1:100 in DMEM, 0.1% BSA) is added and the cells are incubated with BrdU (final concentration=10 μM) for 1.5 hours. • (5) After incubation with labeling reagent, the medium is removed by decanting and tapping the inverted plate on a paper towel. FixDenat solution is added (50 μl/well) and the plates are incubated at room temperature for 45 minutes on a plate shaker. • (6) The FixDenat solution is thoroughly removed by decanting and tapping the inverted plate on a paper towel. Milk is added (5% dehydrated milk in PBS, 200 μ/well) as a blocking solution and the plate is incubated for 30 minutes at room temperature on a plate shaker. • (7) The blocking solution is removed by decanting and the wells are washed once with PBS. Anti-BrdU-POD solution (1:100 dilution in PBS, 1% BSA) is added (100 μl/well) and the plate is incubated for 90 minutes at room temperature on a plate shaker. • (8) The antibody conjugate is thoroughly removed by decanting and rinsing the wells 5 times with PBS, and the plate is dried by inverting and tapping on a paper towel. • (9) TMB substrate solution is added (100 μl/well) and incubated for 20 minutes at room temperature on a plate shaker until color development is sufficient for photometric detection. • (10) The absorbance of the samples are measured at 410 nm (in “dual wavelength” mode with a filter reading at 490 nm, as a reference wavelength) on a Dynatech ELISA plate reader.

T1 sequence (P04626 676-1255 limits assumed, change not shown): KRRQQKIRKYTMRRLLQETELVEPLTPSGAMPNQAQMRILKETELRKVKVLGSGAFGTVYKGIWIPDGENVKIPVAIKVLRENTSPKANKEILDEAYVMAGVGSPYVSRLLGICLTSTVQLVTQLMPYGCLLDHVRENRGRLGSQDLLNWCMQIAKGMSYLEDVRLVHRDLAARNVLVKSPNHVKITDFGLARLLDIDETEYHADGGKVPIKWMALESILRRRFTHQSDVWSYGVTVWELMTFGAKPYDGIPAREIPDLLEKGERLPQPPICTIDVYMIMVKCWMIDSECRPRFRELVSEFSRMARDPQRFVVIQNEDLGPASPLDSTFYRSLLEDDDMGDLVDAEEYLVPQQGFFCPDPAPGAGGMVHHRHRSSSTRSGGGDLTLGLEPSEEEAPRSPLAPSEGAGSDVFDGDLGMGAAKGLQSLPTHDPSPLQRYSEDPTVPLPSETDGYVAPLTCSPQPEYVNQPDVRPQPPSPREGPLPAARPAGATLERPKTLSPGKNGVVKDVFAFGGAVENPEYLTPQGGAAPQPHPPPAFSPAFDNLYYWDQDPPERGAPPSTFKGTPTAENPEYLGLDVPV

Row | IC50 [1] [µM] | melting point [°C] | Compound
1 | 8.7 |  | COc1c(C(C)C)cc(/C=C2/C(=O)Nc3ccccc32)cc1C(C)C [Example 1, 3-(3,5-Diisopropyl-4-methoxybenzylidene)-1,3-dihydroindol-2-one]
2 |  | 263 to 266 | COc1ccc2c(c1)NC(=O)/C2=C\c1[nH]c2c(c1CCC(=O)O)CCCC2 [Example 196, 3-[2-(6-Methoxy-2-oxo-1,2-dihydroindol-3-ylidenemethyl)-4,5,6,7-tetrahydro-1H-indol-3-yl]-propionic acid]

From patent US6855730B2, “3-methylidenyl-2-indolinone modulators of protein kinase” (Sugen, Inc., priority 1998, dated 2005)
